From patent US20230089073A1 (Carmot Therapeutics, Inc., priority 2021, published 2023)

What follows are compounds tested against T1, human GLP-1 receptor (Homo sapiens, UniProt P43220) (assay: GLP-1R cAMP Assay). Details: cAMP accumulation in CHO cells stably overexpressing the human GLP-1 receptor; 30 min treatment; HitHunter cAMP kit; read-out: EC50.
T1 construct: expressed in transfected cells
Assay type: cell-based
Description: cAMP accumulation was measured in Chinese hamster ovary (CHO) cells stably overexpressing the human GLP-1 receptor using the HitHunter cAMP Assay for Small Molecules Kit (Eurofins). Briefly, cells were grown in Ham's F12 Nutrient Mix with 10% FBS, and lifted with Cell Dissociation Buffer, Enzyme free, PBS based (ThermoFisher). […] The anti-cAMP antibody reagent was then added to cells at a 1:2 ratio and 5 μL of mixture was seeded in 384-well small volume white assay plates, at 10,000 cells/well. Cells were then treated with 50 nL compound using an ECHO 550 acoustic dispenser (Labcyte) in a 20-point dose response format in triplicate for 30 min. Cells were then lysed, and detection reagents added according to the manufacturer's protocol. After overnight incubation, luminescence was measured using a Perkin Elmer Envision plate reader. Dose response curves were analyzed using GraphPad Prism 9.0.

T1 sequence (P43220 24-463): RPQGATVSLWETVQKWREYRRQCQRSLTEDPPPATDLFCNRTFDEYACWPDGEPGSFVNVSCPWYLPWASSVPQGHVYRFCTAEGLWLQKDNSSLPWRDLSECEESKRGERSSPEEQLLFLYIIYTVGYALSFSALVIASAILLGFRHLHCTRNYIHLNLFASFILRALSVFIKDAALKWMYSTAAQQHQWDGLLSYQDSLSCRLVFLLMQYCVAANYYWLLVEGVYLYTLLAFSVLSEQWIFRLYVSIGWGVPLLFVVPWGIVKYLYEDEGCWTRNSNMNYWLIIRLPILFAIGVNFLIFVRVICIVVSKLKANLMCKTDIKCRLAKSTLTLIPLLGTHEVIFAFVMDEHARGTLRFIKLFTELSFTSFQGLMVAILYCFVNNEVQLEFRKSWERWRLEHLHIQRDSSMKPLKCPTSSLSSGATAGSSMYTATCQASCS

EC50 [nM]	Structure (SMILES)
< 50	COC1(Cn2c(CN3CCC(Oc4ccnc(COc5ccc(Cl)cc5F)c4)CC3)nc3ccc(C(=O)O)cc32)CC1 [Example 368, 2-((4-((2-((4-Chloro-2-fluorophenoxy)methyl)pyridin-4-yl)oxy)piperidin-1-yl)methyl)-1-((1-methoxycyclopropyl)methyl)-1H-benzo[d]imidazole-6-carboxylic acid]
< 50	C[C@H]1C[C@@H](Oc2ccnc(COc3ccc(C(F)(F)F)cc3F)n2)CCN1Cc1nc2ccc(C(=O)O)cc2n1C[C@@H]1CCO1 [Compound 376]
< 50	CCn1cncc1Cn1c(CN2CCC(Oc3ccnc(COc4ccc(C#N)cc4F)n3)CC2)nc2ccc(C(=O)O)cc21 [Example 261, 2-((4-((2-((4-Cyano-2-fluorophenoxy)methyl)pyrimidin-4-yl)oxy)piperidin-1-yl)methyl)-1-((1-ethyl-1H-imidazol-5-yl)methyl)-1H-benzo[d]imidazole-6-carboxylic acid]
< 50	C[C@H]1CN(C(=O)c2cnc(COc3ccc(Cl)cc3Cl)o2)CCN1Cc1nc2ccc(C(=O)O)cc2n1C[C@@H]1CCO1 [Example 186, 2-(((S)-4-(2-((2,4-Dichlorophenoxy)methyl)oxazole-5-carbonyl)-2-methylpiperazin-1-yl)methyl)-1-(((S)-oxetan-2-yl)methyl)-1H-benzo[d]imidazole-6-carboxylic acid]
< 50	O=C(O)c1ccc2nc(CN3CCC(Oc4cccc(COc5ccc(Cl)cc5Cl)c4)CC3)n(C[C@@H]3CCO3)c2c1 [Compound 174, 2-[(4-{3-[(2,4-dichlorophenoxy)methyl]phenoxy}piperidin-1-yl)methyl]-1-{[(2S)-oxetan-2-yl]methyl}-1H-1,3-benzodiazole-6-carboxylic acid]
< 50	CCn1cncc1Cn1c(CN2CCN(C(=O)c3cnc(COc4ccc(Cl)cc4Cl)o3)CC2)nc2ccc(C(=O)O)cc21 [Compound 156, 2-[(4-{2-[(2,4-dichlorophenoxy)methyl]-1,3-oxazole-5-carbonyl}piperazin-1-yl)methyl]-1-[(1-ethyl-1H-imidazol-5-yl)methyl]-1H-1,3-benzodiazole-6-carboxylic acid]
> 500	N#Cc1ccc(Oc2cccc(C(=O)N3CCN(Cc4nc5ccc(C(=O)O)cc5n4C[C@@H]4CCO4)CC3)c2)c(F)c1 [Example 10, (S)-2-((4-(3-(4-Cyano-2-fluorophenoxy)benzoyl)piperazin-1-yl)methyl)-1-(oxetan-2-ylmethyl)-1H-benzo[d]imidazole-6-carboxylic acid]
< 50	N#Cc1cc(Cl)ccc1OCc1nccc(OC2CCN(Cc3nc4ccc(C(=O)O)cc4n3C[C@@H]3CCO3)CC2)n1 [Compound 481, 2-{[4-({2-[(4-chloro-2-cyanophenoxy)methyl]pyrimidin-4-yl}oxy)piperidin-1-yl]methyl}-1-{[(2S)-oxetan-2-yl]methyl}-1H-1,3-benzodiazole-6-carboxylic acid]
< 50	O=C(O)c1ccc2nc(CN3CCC(Oc4cccc(COc5ccc(Cl)cc5F)n4)CC3)n(Cc3ccno3)c2c1 [Compound 270, 2-{[4-({6-[(4-chloro-2-fluorophenoxy)methyl]pyridin-2-yl}oxy)piperidin-1-yl]methyl}-1-[(1,2-oxazol-5-yl)methyl]-1H-1,3-benzodiazole-6-carboxylic acid]
< 50	N#Cc1ccc(OCc2nccc(O[C@@H]3C[C@@H]4C[C@H]3CN4Cc3nc4ccc(C(=O)O)cc4n3C[C@@H]3CCO3)n2)c(F)c1 [Compound 506, 2-{[(1S,4S,5R)-5-({2-[(4-cyano-2-fluorophenoxy)methyl]pyrimidin-4-yl}oxy)-2-azabicyclo[2.2.1]heptan-2-yl]methyl}-1-{[(2S)-oxetan-2-yl]methyl}-1H-1,3-benzodiazole-6-carboxylic acid]
50 to 500	O=C(O)c1ccc2nc(CN3CCN(C(=O)c4cnc(COc5ccc(Cl)cc5Cl)o4)CC3)n(C[C@@H]3CCO3)c2c1 [Example 102, (S)-2-((4-(2-((2,4-Dichlorophenoxy)methyl)oxazole-5-carbonyl)piperazin-1-yl)methyl)-1-(oxetan-2-ylmethyl)-1H-benzo[d]imidazole-6-carboxylic acid]
< 50	N#CCC1(Cn2c(CN3CCC(Oc4ccnc(COc5ccc(F)cc5C#N)n4)CC3)nc3ccc(C(=O)O)cc32)CC1 [Compound 348]
< 50	N#CCC1(Cn2c(CN3CCC(Oc4ccnc(COc5ccc(C#N)cc5F)n4)CC3)nc3ccc(C(=O)O)cc32)CC1 [Compound 331]
< 50	O=C(O)c1ccc2nc(CN3CCC(Oc4ccnc(COc5ccc(Cl)cc5F)n4)CC3)n(C[C@@H]3CCO3)c2c1 [Compound 296, 2-{[4-({2-[(4-chloro-2-fluorophenoxy)methyl]pyrimidin-4-yl}oxy)piperidin-1-yl]methyl}-1-{[(2S)-oxetan-2-yl]methyl}-1H-1,3-benzodiazole-6-carboxylic acid]
50 to 500	Cc1ccc(N(C)c2ccc(C3CC3)c(C(=O)N3CCN(Cc4nc5ccc(C(=O)O)cc5n4C[C@@H]4CCO4)CC3)c2)c(Cl)c1 [Compound 93, 2-[(4-{5-[(2-chloro-4-methylphenyl)(methyl)amino]-2-cyclopropylbenzoyl}piperazin-1-yl)methyl]-1-{[(2S)-oxetan-2-yl]methyl}-1H-1,3-benzodiazole-6-carboxylic acid]
< 50	O=C(O)c1ccc2nc(CN3CCC(Cc4cnc(COc5ccc(Cl)cc5Cl)o4)CC3)n(C[C@@H]3CCO3)c2n1 [Compound 129, 2-{[4-({2-[(2,4-dichlorophenoxy)methyl]-1,3-oxazol-5-yl}methyl)piperidin-1-yl]methyl}-3-{[(2S)-oxetan-2-yl]methyl}-3H-imidazo[4,5-b]pyridine-5-carboxylic acid]
< 50	CCn1cncc1Cn1c(CN2CCC(Cc3cc(COc4ccc(Cl)cc4Cl)ccc3F)CC2)nc2ccc(C(=O)O)cc21 [Compound 137, 2-{[4-({5-[(2,4-dichlorophenoxy)methyl]-2-fluorophenyl}methyl)piperidin-1-yl]methyl}-1-[(1-ethyl-1H-imidazol-5-yl)methyl]-1H-1,3-benzodiazole-6-carboxylic acid]
< 50	CCn1cncc1Cn1c(CN2CCC(Cc3ccnc(COc4ccc(Cl)cc4Cl)c3)CC2)nc2ccc(C(=O)O)cc21 [Example 128, 2-((4-((2-((2,4-Dichlorophenoxy)methyl)pyridin-4-yl)methyl)piperidin-1-yl)methyl)-1-((1-ethyl-1H-imidazol-5-yl)methyl)-1H-benzo[d]imidazole-6-carboxylic acid]
< 50	O=C(O)c1ccc2nc(CN3CCC(Oc4ccnc(COc5ccc(C(F)F)cc5F)c4)CC3)n(C[C@@H]3CCO3)c2c1 [Example 297, (S)-2-((4-((2-((4-(Difluoromethyl)-2-fluorophenoxy)methyl)pyridin-4-yl)oxy)piperidin-1-yl)methyl)-1-(oxetan-2-ylmethyl)-1H-benzo[d]imidazole-6-carboxylic acid]
< 50	O=C(O)c1ccc2nc(CN3CCC(Oc4ccnc(COc5ccc(Cl)cc5F)c4)CC3)n(Cc3cnco3)c2c1 [Compound 265, 2-{[4-({2-[(4-chloro-2-fluorophenoxy)methyl]pyridin-4-yl}oxy)piperidin-1-yl]methyl}-1-[(1,3-oxazol-5-yl)methyl]-1H-1,3-benzodiazole-6-carboxylic acid]
> 500	CN(c1cc(C(=O)N2CCN(Cc3nc4ccc(C(=O)O)cc4n3C[C@@H]3CCO3)CC2)ncn1)C1CCCCC1 [Example 61, (S)-2-((4-(6-(Cyclohexyl(methyl)amino)pyrimidine-4-carbonyl)piperazin-1-yl)methyl)-1-(oxetan-2-ylmethyl)-1H-benzo[d]imidazole-6-carboxylic acid]
< 50	C[C@H]1C[C@@H](Oc2ccnc(COc3ccc(C#N)cc3F)n2)CCN1Cc1nc2ccc(C(=O)O)nc2n1C[C@@H]1CCO1 [Compound 375]
< 50	CCn1cncc1Cn1c(CN2CCC(Oc3ccnc(COc4ccc(C#N)cc4F)c3)CC2)nc2ccc(C(=O)O)cc21 [Compound 275, 2-{[4-({2-[(4-cyano-2-fluorophenoxy)methyl]pyridin-4-yl}oxy)piperidin-1-yl]methyl}-1-[(1-ethyl-1H-imidazol-5-yl)methyl]-1H-1,3-benzodiazole-6-carboxylic acid]
> 500	Cc1ccccc1Oc1cccc(C(=O)N2CCN(Cc3nc4ccc(C(=O)O)cc4n3C[C@@H]3CCO3)CC2)c1 [Example 14, (S)-1-(Oxetan-2-ylmethyl)-2-((4-(3-(o-tolyloxy)benzoyl)piperazin-1-yl)methyl)-1H-benzo[d]imidazole-6-carboxylic acid]
> 500	O=C(O)c1ccc2nc(CN3CCN(C(=O)c4cccc(Oc5cc(Cl)ccc5Cl)c4)CC3)n(C[C@@H]3CCO3)c2c1 [Compound 11, 2-({4-[3-(2,5-dichlorophenoxy)benzoyl]piperazin-1-yl}methyl)-1-{[(2S)-oxetan-2-yl]methyl}-1H-1,3-benzodiazole-6-carboxylic acid]
50 to 500	O=C(O)c1ccc2nc(CN3CCC(Oc4cc(COc5ccc(Cl)cc5Cl)ccn4)CC3)n(C[C@@H]3CCO3)c2c1 [Example 178, (S)-2-((4-((4-((2,4-Dichlorophenoxy)methyl)pyridin-2-yl)oxy)piperidin-1-yl)methyl)-1-(oxetan-2-ylmethyl)-1H-benzo[d]imidazole-6-carboxylic acid]
< 50	O=C(O)c1ccc2nc(CN3CCC(Oc4cccc(COc5ccc(Cl)cc5F)n4)CC3)n(Cc3ncco3)c2c1 [Compound 268, 2-{[4-({6-[(4-chloro-2-fluorophenoxy)methyl]pyridin-2-yl}oxy)piperidin-1-yl]methyl}-1-[(1,3-oxazol-2-yl)methyl]-1H-1,3-benzodiazole-6-carboxylic acid]
